Data on 5 compounds can be found in publication PMC3145970, “Specific CLK Inhibitors from a Novel Chemotype for Regulation of Alternative Splicing” (Chemistry & Biology, 2011).

Read-outs that look alike come from different tables or passages of the source.

One assay addresses CLK2 (Homo sapiens, UniProt P49760). Briefly: Thermal stability shift assay. The assay is classed as binding. The settings on record: inhibitor 10 μM; read-out: Tm shift CLK2. Here is the method:
(§1) Thermal denaturation experiments were carried out in an Mx3005p real-time PCR machine (Agilent) using a protein concentration of 2 μM and an inhibitor concentration of 10 μM. Samples were buffered in 10 mM HEPES (pH 7.5), 500 mM NaCl and a 1:1000 dilution of SyproOrange (Invitrogen).

The next assay has as its target CK1e (Homo sapiens, UniProt P49674). Kind of assay: Thermal stability shift assay. The settings on record: inhibitor 10 μM; read-out: Tm shift CK1e. The assay is classed as binding. How it is done: as §1
A further assay concerns the target T1, CLK4 (Homo sapiens, UniProt Q9HAZ1).
T1 construct: purchased in-house (SGC Oxford thermal shift panel)
Briefly: Thermal stability shift assay. The class given is binding. The following applies: inhibitor 10 μM; read-out: Tm shift CLK4. Here is the method: as §1

The target in another assay is CK1g3 (Homo sapiens, UniProt Q9Y6M4). Kind of assay: Thermal stability shift assay. The class given is binding. The settings on record: read-out: Tm shift CK1g3. Here is the method: as §1
The test system of assay [1] is panel of 106 kinases / 129 human protein kinases. Kind of assay: Thermal shift assay, kinase panel. The assay is classed as binding. The following applies: inhibitor 10 μM. Here is the method: Thermal denaturation experiments were carried out in an Mx3005p real-time PCR machine (Agilent) using a protein concentration of 2 μM and an inhibitor concentration of 10 μM. Samples were buffered in 10 mM HEPES (pH 7.5), 500 mM NaCl and a 1:1000 dilution of SyproOrange (Invitrogen). The assay and data evaluation were carried out as described ([Bullock et al., 2005])

For assay [2], the system named is flTF and asHTF mRNA in HMEC-1 cells. Briefly: TF isoform mRNA expression (RT-PCR).
Procedure: For inhibition experiments, HMEC-1 endothelial cells were switched to EC basal medium (without fetal calf serum) for 1 hr. […] Analysis of the TF isoform mRNA expression was done 1 hr post stimulation with TNF-α and assessment of the phosphorylation state of SR proteins by western blotting was performed 2 min post induction of the cells. Positive controls were stimulated only with TNF-α, and negative controls were untreated.
In assay [3] the test system is phosphorylated SR proteins in HMEC-1 cells. Kind of assay: SR protein phosphorylation, western blotting. The class given is cell-based, human. The following applies: TNF-α-stimulated HMEC-1, increasing inhibitor concentration. Here is the method:
Western blot analysis of samples from cell lysates of inhibited, stimulated, and unstimulated HMEC-1 cells were performed as previously described ([Szotowski et al., 2005]). For detection of phosphorylated SR proteins, monoclonal antibody mAb1H4 (Invitrogen GmbH, Karlsruhe, Germany) was used.
Background: A western blot detects proteins with antibodies after separation by electrophoresis.

In assay [4] the test system is panel of 71 protein kinases. Briefly: Caliper mobility shift enzymatic kinase selectivity screening. The class given is biochemical. The settings on record: tested 0.1 nM to 10 μM; ATP at KM. How it is done: Enzymatic kinase selectivity screening was carried out using the Caliper mobility shift assay which is based on the difference in capillary electrophoresis mobility of a fluorescent tagged peptide as a result of the addition of a phosphate moiety by the studied kinase. The kinase reactions were started by addition of 4.5 μl substrate mix consisting of ATP and peptide substrate in assay buffer (50 mM HEPES [pH 7.5], 0.02% bovine serum albumin, 1 mM DTT, 0.02% Tween 20, 0.01 mM Na3VO4, 10 mM beta-glycerophosphate) and 4.5 μl enzyme solution in assay buffer. The peptide concentration was 2 μM. Concentrations for the enzyme, as well as for MgCl2 and MnCl2 were adjusted specifically to the requirements of the individual enzyme. ATP concentrations were adjusted to the KM values of the specific enzyme. After incubation for 60 min at 30°C the kinase reactions were stopped by addition of 16 μl stop solution (100 mM HEPES [pH 7.5], 5% DMSO, 0.1% coating reagent [Caliper Lifescience] 10 mM EDTA [pH 8.0], 0.015% BRIJ35). Stopped kinase reactions were analyzed in a LC3000 reader (Caliper Lifescience). Compounds were tested from 0.1 nM to 10 μM in eight steps.

T1 sequence (Q9HAZ1 whole entry): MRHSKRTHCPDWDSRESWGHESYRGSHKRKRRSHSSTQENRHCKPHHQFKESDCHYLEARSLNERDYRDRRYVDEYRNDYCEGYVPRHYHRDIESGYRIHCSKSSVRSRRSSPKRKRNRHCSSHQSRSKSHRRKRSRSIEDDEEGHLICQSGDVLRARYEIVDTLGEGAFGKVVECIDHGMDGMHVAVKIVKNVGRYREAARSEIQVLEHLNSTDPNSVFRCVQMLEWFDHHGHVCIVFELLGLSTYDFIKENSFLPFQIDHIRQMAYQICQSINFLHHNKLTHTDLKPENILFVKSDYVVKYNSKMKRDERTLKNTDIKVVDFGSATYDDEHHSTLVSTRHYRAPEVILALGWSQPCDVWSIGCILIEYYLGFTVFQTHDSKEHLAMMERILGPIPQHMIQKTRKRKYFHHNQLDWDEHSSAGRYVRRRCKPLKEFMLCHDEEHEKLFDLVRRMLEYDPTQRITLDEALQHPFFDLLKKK
Sequence of CK1e (P49674 whole entry): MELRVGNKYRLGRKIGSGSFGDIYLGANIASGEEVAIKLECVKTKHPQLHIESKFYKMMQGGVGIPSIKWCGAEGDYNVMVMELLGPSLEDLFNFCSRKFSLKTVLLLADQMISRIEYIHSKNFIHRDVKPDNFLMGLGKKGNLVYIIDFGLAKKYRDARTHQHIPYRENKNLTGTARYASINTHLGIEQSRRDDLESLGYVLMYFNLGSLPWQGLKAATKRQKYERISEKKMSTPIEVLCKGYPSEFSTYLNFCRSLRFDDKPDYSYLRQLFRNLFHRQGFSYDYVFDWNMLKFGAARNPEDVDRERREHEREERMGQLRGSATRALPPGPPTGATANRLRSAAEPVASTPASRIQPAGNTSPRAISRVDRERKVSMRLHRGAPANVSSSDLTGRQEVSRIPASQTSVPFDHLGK
Sequence of CLK2 (P49760 whole entry): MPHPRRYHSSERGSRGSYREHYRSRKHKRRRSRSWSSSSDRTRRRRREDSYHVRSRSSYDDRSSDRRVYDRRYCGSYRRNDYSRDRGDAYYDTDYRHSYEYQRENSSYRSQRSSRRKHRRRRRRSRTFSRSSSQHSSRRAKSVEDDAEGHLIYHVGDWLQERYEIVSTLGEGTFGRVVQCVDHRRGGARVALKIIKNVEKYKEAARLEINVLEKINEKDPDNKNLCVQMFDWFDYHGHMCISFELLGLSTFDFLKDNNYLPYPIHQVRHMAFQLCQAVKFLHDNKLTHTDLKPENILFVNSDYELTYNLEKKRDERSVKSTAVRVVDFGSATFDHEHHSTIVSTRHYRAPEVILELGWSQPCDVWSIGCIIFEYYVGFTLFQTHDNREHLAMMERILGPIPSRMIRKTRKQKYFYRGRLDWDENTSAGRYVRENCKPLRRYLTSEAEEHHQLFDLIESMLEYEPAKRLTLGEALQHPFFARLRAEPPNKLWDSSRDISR
Sequence of CK1g3 (Q9Y6M4 whole entry): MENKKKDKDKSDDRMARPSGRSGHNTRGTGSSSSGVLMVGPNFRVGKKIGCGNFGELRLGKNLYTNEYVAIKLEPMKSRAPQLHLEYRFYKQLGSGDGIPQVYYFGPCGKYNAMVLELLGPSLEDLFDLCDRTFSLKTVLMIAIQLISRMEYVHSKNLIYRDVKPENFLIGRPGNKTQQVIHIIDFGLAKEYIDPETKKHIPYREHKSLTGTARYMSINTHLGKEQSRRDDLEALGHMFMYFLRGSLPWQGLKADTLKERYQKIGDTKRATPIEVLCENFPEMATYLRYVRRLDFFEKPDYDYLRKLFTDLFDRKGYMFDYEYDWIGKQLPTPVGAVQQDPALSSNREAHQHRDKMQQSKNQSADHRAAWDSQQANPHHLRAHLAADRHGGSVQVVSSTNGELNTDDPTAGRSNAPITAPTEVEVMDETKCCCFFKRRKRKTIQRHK

For `Cn1c2c(Cl)c(Cl)ccc2c2c(C#N)c[nH]c(=O)c21` [compound 3, 7,8-Dichloro-9-Methyl-1-Oxo-2,9-Dihydro-1H-Pyrido[3,4-b]Indole-4-Carbonitrile], the ΔTm at 10 µM on CLK2 worked out at 6.3 °C; at CK1e, 0.9 °C; on CLK4, 9.6 °C; at CK1g3 (inhibitor 10 μM), 0 °C. Also, the “Interaction in thermal shift screen, panel of 106 kinases” value in assay [1] is given as “showed only interaction with CLK family members”.

`CCOC(=O)c1c(C(C#N)=CN)c2ccc(Cl)c(Cl)c2n1C` (mixture of isomers) [KH-CB20, (E/Z)-Ethyl 3-(2-Amino-1-Cyanovinyl)-6,7-Dichloro-1-Methyl-1H-Indole-2-Carboxylate]: the ΔTm at 10 µM at CK1g3 was found to be 0.3 °C.

As for `NC1=NC(=O)/C(=C2\CCNC(=O)c3[nH]c(Br)cc32)N1` [Hymenialdisine, hymenialdisine, reference compound], the ΔTm at 10 µM is 4.4 °C at CLK2, 4.8 °C at CK1e, 7 °C on CLK4 and 3.5 °C on CK1g3 (inhibitor 10 μM).

As to `CCOC(=O)c1c(/C(C#N)=C\N)c2ccc(Cl)c(Cl)c2n1C` [KH-CB19, (E)-Ethyl 3-(2-Amino-1-Cyanovinyl)-6,7-Dichloro-1-Methyl-1H-Indole-2-Carboxylate], on CK1g3, the ΔTm at 10 µM was 0.1 °C. The “TNF-α-induced mRNA expression of flTF and asHTF” value in assay [2] (HMEC-1, 10 μM inhibitor, 10 ng/ml TNF-α, 1 hr post stimulation) was “lowered TNF-α-induced expression of both TF mRNA splice variants to baseline”. For the same compound, the “Basal mRNA expression of flTF and asHTF” value in assay [2] (resting HMEC-1, 10 μM inhibitor) was “significantly reduced the basal expression of flTF as well as asHTF”. Also, in assay [3], the “Dose response of SRp75 and SRp55 phosphorylation” value is given as “significantly reduced at increasing concentration of the inhibitor”. Further, the “Inhibition of panel of 71 protein kinases” value in assay [4] is on record as “No additional kinases from the panel were inhibited”.

Take `CCOC(=O)c1c(C(C#N)=CN(C)C)c2ccc(Cl)c(Cl)c2n1C` (mixture of isomers) [compound 2, (E/Z)-Ethyl 6,7-Dichloro-3-[1-Cyano-2-(Dimethylamino)Vinyl]-1-Methyl-1H-Indole-2-Carboxylate]: the ΔTm at 10 µM came out at 3 °C on CLK2, 0.3 °C at CK1e, 4.1 °C at CLK4 and 0.5 °C on CK1g3 (inhibitor 10 μM). Moreover, in assay [1], the “Interaction in thermal shift screen, panel of 106 kinases” value is reported as “showed only interaction with CLK family members”.
